Assay results published in patent US4216216A, “Aromatic piperazinyl substituted dihydrouracils” (Hoechst Aktiengesellschaft, priority 1977, dated 1980).
≈ marks a conversion by molar mass, not a printed value. Where a name gives a salt, the structure may show the parent alone.

Columns and labels:
[1] = tested on: serotonin; conditions: background statement; cited from earlier work
[2] = tested on: thrombocyte aggregation; conditions: background statement; cited from earlier work
[3] = tested on: thrombocyte aggregation; assay: Thrombocyte aggregation inhibiting activity (ADP-induced, platelet-rich plasma); type: cell-based, beagle dogs
Experimental: Thrombocyte aggregation was induced experimentally in platelet-rich plasm (PRP) of beagle dogs by in vitro administration of adenosine diphosphate (ADP) in a final concentration of 2.5×10^-6 and was measured by means of a universal aggregometer (manufactured by B. Braun/Melsungen). An Eppendorf Photometer recorded the change in the optical density of the plasma.
The following parameters were determined:
1. The angle, α, between the tangent at the starting point of the curve and the horizontal axis,
2. The time, Tr, from the start of rotation (aggregation) until complete disaggregation,
3. The maximum amplitude (Ma) of the aggregation curve as the difference between starting transmission and maximum transmission.

[4] = tested on: serotonin spasm (bronchospasm); assay: Test a: inhibition of serotonin-induced bronchospasm (Konzett and Rossler); type: in vivo; conditions: Cavia porcellus, guinea pigs
Experimental: (§1) For determination of the serotonin-antagonistic activity the following pharmacological tests were used: Test a: (Test according to Konzett and Rossler (Arch. exp. Path. Pharmak. 195 (1940) 71). Domestic albino guinea pigs were anaesthetised with 1.25 g/kg of urethane intraperitoneally (i.p.). Bronchial resistance was recorded in the open thorax by a recorder ("bronchotransducer") manufactured by the firm Ugo Basile (Milan); respiratory frequency was kept constant by artificial respiration at a frequency of 58 strokes/minute, the inflation pressure was 9 cm H2 O column. To induce bronchospasms, 5 to […] of serotonin (as serotonin-creatinine sulphate) were injected into one of the jugular veins every 15 minutes in a volume of 0.1 ml/kg body weight. The test substances were administered in a volume of 1 ml/kg either intravenously within 30 seconds, 2 minutes before generation of the serotonin spasm or intraduodenally or orally by oesphageal tube 15 minutes before the spasm. […] The results are given in Table I. Test b: (Serotonin antagonism in the isolated uterus of rats according to Robert A. Turner: Screening Methods in Pharmacology, Academic Press 1965 (New York and London)) Female Sprague-Dawley rats with a weight of 180 to 240 g were given intraperitoneally 2 mg of Oestromon (Merck, Darmstadt) 24 hours before extraction of the uterus in order to induce oestrus. The organ bath was kept at 22° C. and contained a Tyrode solution having a specific composition. The test substance was added to the bath in aqueous solution with a total volume of 0.1 ml. The serotonin concentration administered was 10^-8 g/ml bath. The ED50 value corresponded to the dose by which a serotonin spasm is inhibited by 50%. Test c: (5-Hydroxy-L-tryptophan antagonism in mice). A single administration of 5-hydroxy-L-tryptophan causes in mice a strong increase in defecation due to the increased biosynthesis of serotonin from exogenically supplied amino acids. This defecation effect can be reduced by serotonin antagonists. The test substances were administered orally 45 minutes before administration of the tryptophan. The tryptophan dose was 40 mg/kg i.p.

[5] = tested on: 5-Hydroxy-L-tryptophan; assay: Test c: 5-Hydroxy-L-tryptophan antagonism in mice (defecation); type: in vivo; conditions: 5-hydroxy-L-tryptophan 40 mg/kg i.p.
Experimental: as §1
Evaluation was carried out 1 hour after administration of the preparation by measurement of the quantity of faeces produced. A reduction in this quantity by not more than 25% of the control is indicated, according to the result, by 0 or (+), from 25 to 50% by +, from 50 to 75% by ++ and over 75% +++ (see Table I).

[6] = tested on: mice; conditions: i.v., Speigt and Avery, Drugs 3, 159-203 (1972), 10080 min; cited from earlier work
[7] = tested on: serotonin spasm in the isolated uterus of rats; assay: Test b: serotonin antagonism in the isolated uterus of rats; type: cell-based, rats (Sprague-Dawley); conditions: isolated rat uterus; serotonin 10^-8 g/ml bath; 22° C.; read-out: ED50 (the source's name)
Experimental: as §1

[8] = tested on: rats; conditions: i.v., Speigt and Avery, Drugs 3, 159-203 (1972), 10080 min; cited from earlier work
[9] = Acute toxicity, mice; conditions: mouse, in vivo, mortality within 7 days
From the text: (§2) Table III sets out for some compounds, the toxicity determined in mice and rats after intraperitoneal and intravenous administration over the mortality occurring within 7 days as LD50 or LD50 range.

[10] = Acute toxicity, rats; conditions: rat, in vivo, iv, mortality within 7 days
From the text: as §2

[11] = pH value of aqueous solution; type: physicochemical; conditions: for pH value of a 0.1% aqueous solution: 0.1% solution
[12] = 0.25 h, i.d. (intraduodenal), 15 minutes after administration
[13] = iv, 2 min, i.v., 2 minutes after injection
[14] = po, 0.25 h, p.o., 15 minutes after administration
[15] = Canis lupus familiaris, final concentration 10^-4 g/ml, read-out: Change of Ma in %
[16] = final concentration 3 × 10^-5 g/ml

Compound	Ma, maximum amplitude of the aggregation curve ([3]; final concentration 10^-4 g/ml)	Tr, time from start of rotation (aggregation) until complete disaggregation ([3]; final concentration 10^-4 g/ml) [min]	angle α between the tangent at the starting point of the curve and the horizontal axis ([3]; final concentration 10^-4 g/ml)	ED50 [4, 12] [mg/kg]	ED50 [4, 13] [mg/kg]	Strength of activity (reduction in quantity of faeces) ([5]; 20 mg/kg p.o.)	IC50 [7] [ng/mL]	LD50 at 168 h ([9]; iv) [mg/kg]	inhibition at 100 µg/mL [3, 15] [%]	also measured
CN(C)CCCOC1(Cc2ccccc2)CCCCCC1 [Bencyclane]	–	–	–	–	–	–	–	–	–	serotonin antagonism [1]: weak serotonin antagonism; inhibition of thrombocyte aggregation [2]: inhibiting thrombocyte aggregation
CN(C)CCCOC1(Cc2ccccc2)CCCCCC1 [Fludilate, reference compound]	324	2.6	85.2	–	–	–	–	–	–	Change of Ma in % ([3]; final concentration 10^-4 g/ml): -34%
CN1CCC(=C2c3ccccc3CCc3sccc32)CC1 [Pizotyline-HCl, reference compound]	–	–	–	0.01 to 0.1	0.01 to 0.05	+ (from 25 to 50%)	1 to 10	–	–	ED50 [4, 14]: 0.5 to 1 mg/kg; LD50 [6]: 43 ± 1.8 mg/kg; LD50 [8]: 17 ± 1.1 mg/kg
CN1CCC(=C2c3ccccc3CCc3sccc32)CC1 [Pizotyline]	–	–	–	–	–	–	–	–	–	serotonin antagonism [1]: serotonin-antagonistic activities
CC1(C)CC(=O)N(CCCN2CCN(c3ccccc3)CC2)C(=O)N1 [compound 9]	483	4.0	87.0	0.01 to 0.03	0.003 to 0.01	–	1 to 10 (≈ 2.9 to 29 nM)	83	20	ED50 [4, 14]: 0.1 to 0.3 mg/kg; LD50 at 168 h ([9]; ip, for the base): 100 to 300 mg/kg; LD50 at 168 h ([10]; for the base): 60 mg/kg; inhibition at 30 µg/mL ([3]; Canis lupus familiaris, final concentration 3 × 10^-5 g/ml, read-out: Change of Ma in %): 13%; inhibition at 10 µg/mL ([3]; Canis lupus familiaris, final concentration 10^-5 g/ml, read-out: Change of Ma in %): 11%; Ma, maximum amplitude of the aggregation curve [3, 16]: 523; Tr, time from start of rotation (aggregation) until complete disaggregation [3, 16]: 4.3 min; angle α between the tangent at the starting point of the curve and the horizontal axis [3, 16]: 86.6; Ma, maximum amplitude of the aggregation curve ([3]; final concentration 10^-5 g/ml): 535; Tr, time from start of rotation (aggregation) until complete disaggregation ([3]; final concentration 10^-5 g/ml): 4.6 min; angle α between the tangent at the starting point of the curve and the horizontal axis ([3]; final concentration 10^-5 g/ml): 86.5
CC1(C)CC(=O)N(CCCN2CCN(c3ccc(F)cc3)CC2)C(=O)N1 [compound 11]	–	–	–	–	0.01 to 0.03	–	–	–	–	LD50 at 168 h ([9]; ip): 100 to 300 mg/kg
CC1(C)CC(=O)N(CCCN2CCN(c3ccccc3)CC2)C(=S)N1 [compound 16]	315	1.8	86.3	0.3	0.01 to 0.03	+ (from 25 to 50%)	1 to 10 (≈ 2.77 to 27.7 nM)	40 to 63	42	ED50 [4, 14]: ~0.3 mg/kg; Strength of activity (reduction in quantity of faeces) ([5]; 10 mg/kg p.o.): + (from 25 to 50%); LD50 at 168 h ([9]; ip): 200 to 400 mg/kg
CC1NC(=O)N(CCCN2CCN(c3ccccc3)CC2)C(=O)C1C (stereo not shown) [compound 17]	344	2.3	85.9	0.01 to 0.03	0.001 to 0.003	++ (from 50 to 75%)	1 to 10 (≈ 2.9 to 29 nM)	54	18	Strength of activity (reduction in quantity of faeces) ([5]; 10 mg/kg p.o.): + (from 25 to 50%); LD50 at 168 h [10]: 25 to 40 mg/kg
CC1(C)CC(=O)N(CCN2CCN(c3ccccc3)CC2)C(=S)N1 [compound 18]	328	3.0	85.8	~0.03	0.001 to 0.003	++ (from 50 to 75%)	0.1 to 1 (≈ 0.289 to 2.89 nM)	100 to 150	19	Strength of activity (reduction in quantity of faeces) ([5]; 10 mg/kg p.o.): ++ (from 50 to 75%); LD50 at 168 h [10]: 66 mg/kg; pH value of a 0.1% aqueous solution [11]: about 4.3
CN1C(=O)N(CCCN2CCN(c3ccccc3)CC2)C(=O)CC1(C)C [compound 26]	–	–	–	–	–	–	–	–	–	pH value of a 0.1% aqueous solution [11]: around 3.0
CC1(C)CC(=O)N(CCN2CCN(c3ccccc3)CC2)C(=S)N1 [dihydrochloride hydrate]	–	–	–	–	–	–	–	–	–	pH value of a 10% aqueous solution ([11]; 10% aqueous solution): around 1.8
CC[C@@H](CO)NC(=O)[C@@H]1C=C2c3cccc4c3c(cn4C)C[C@H]2N(C)C1 [methysergide]	–	–	–	–	–	–	–	–	–	serotonin antagonism [1]: serotonin-antagonistic activities
